Measurements as given in US20100226881A1, “PYRAZOLO[1,5-a]PYRIDINES AND THEIR USE IN CANCER THERAPY” (Auckland Uniservices Limited, priority 2007, published 2010).
Read-outs that look alike come from different tables or passages of the source.

Key:
p110β/p85 = p110β/p85 (Homo sapiens, UniProt P42338); test: Inhibition of isolated enzyme, PI 3-kinase p110β/p85; type: biochemical; conditions: recombinant enzyme, 100 μM ATP, average of two experiments
Experimental: (§1) Compounds were evaluated for their ability to inhibit the Class I PI 3-kinase enzymes p110δ/p85, p110α/p85 and p110β/p85. Reaction mixtures comprising 0.1 μg of recombinant enzyme, 10 μg of L-α-phosphatidylinositol, the compound (DMSO only or DMSO+compound to a final concentration of 1%), 2× Lipid Kinase Buffer (40 mM Tris-HCl pH 7.4, 200 mM NaCl, 1 mM EDTA) were activated by the addition of an ATP mix (5 mM MgCl2, 100 μM ATP, 0.1 μL [γ^33P]ATP). […] Firstly, 200 μL of chloroform/methanol (1:1) was added, the biphasic reactions mixed and centrifuged briefly, and the inorganic phase was removed and discarded.

p110δ/p85 = p110δ/p85 (Homo sapiens, UniProt O00329); test: Inhibition of isolated enzyme, PI 3-kinase p110δ/p85; type: biochemical; conditions: recombinant enzyme, 100 μM ATP, average of two experiments
Experimental: as §1

NZB5 = test: Cellular growth inhibition (3H-thymidine), NZB5; type: cell-based; conditions: Homo sapiens, five days, 3H-thymidine incorporation, maximum 20 μM
Experimental: (§2) The compounds were evaluated against two early passage human cell lines NZB5 and NZOV9, whose development and culture have been described [Marshall et al, Oncol. Res. 2004, 14, 297]. The cells were grown in ITS medium (α-modified minimal essential medium supplemented insulin, transferrin, selenite and 5% fetal bovine serum) and grown on 96-well tissue culture plates under an atmosphere of 5% O2, 5% CO2 and 90% N2. Individual wells contained 500-1000 cells (depending on the growth rate) in a volume of 150 μL. Compounds were added at 10-fold concentration steps to a maximum of 20 μM and plates were incubated for five days, with ^3H-thymidine being added over the last 6 h. Cells were harvested and incorporated radioactivity measured. Duplicate samples were analyzed for each compound dose with multiple control samples. Data were fitted by a least-squares method to an exponential of the form y=y0+ae^−bx, where y is the radioactivity (corrected for background and normalized to 100% of the control) x is the radiation dose, and y0, a and b are variables, and the IC50 value defined as the compound concentration reducing ^3H-thymidine levels by 50%.

NZOV9 = test: Cellular growth inhibition (3H-thymidine), NZOV9; type: cell-based; conditions: Homo sapiens, five days, 3H-thymidine incorporation, maximum 20 μM
Experimental: as §2

p110α/p85 = p110α/p85 (Homo sapiens, UniProt P42336); test: Inhibition of isolated enzyme, PI 3-kinase p110α/p85
[1] = read-out: IC50 (nM) p110α, recombinant enzyme, 100 μM ATP, average of two experiments

Chain of p110β/p85 (P42338 whole entry, species assumed): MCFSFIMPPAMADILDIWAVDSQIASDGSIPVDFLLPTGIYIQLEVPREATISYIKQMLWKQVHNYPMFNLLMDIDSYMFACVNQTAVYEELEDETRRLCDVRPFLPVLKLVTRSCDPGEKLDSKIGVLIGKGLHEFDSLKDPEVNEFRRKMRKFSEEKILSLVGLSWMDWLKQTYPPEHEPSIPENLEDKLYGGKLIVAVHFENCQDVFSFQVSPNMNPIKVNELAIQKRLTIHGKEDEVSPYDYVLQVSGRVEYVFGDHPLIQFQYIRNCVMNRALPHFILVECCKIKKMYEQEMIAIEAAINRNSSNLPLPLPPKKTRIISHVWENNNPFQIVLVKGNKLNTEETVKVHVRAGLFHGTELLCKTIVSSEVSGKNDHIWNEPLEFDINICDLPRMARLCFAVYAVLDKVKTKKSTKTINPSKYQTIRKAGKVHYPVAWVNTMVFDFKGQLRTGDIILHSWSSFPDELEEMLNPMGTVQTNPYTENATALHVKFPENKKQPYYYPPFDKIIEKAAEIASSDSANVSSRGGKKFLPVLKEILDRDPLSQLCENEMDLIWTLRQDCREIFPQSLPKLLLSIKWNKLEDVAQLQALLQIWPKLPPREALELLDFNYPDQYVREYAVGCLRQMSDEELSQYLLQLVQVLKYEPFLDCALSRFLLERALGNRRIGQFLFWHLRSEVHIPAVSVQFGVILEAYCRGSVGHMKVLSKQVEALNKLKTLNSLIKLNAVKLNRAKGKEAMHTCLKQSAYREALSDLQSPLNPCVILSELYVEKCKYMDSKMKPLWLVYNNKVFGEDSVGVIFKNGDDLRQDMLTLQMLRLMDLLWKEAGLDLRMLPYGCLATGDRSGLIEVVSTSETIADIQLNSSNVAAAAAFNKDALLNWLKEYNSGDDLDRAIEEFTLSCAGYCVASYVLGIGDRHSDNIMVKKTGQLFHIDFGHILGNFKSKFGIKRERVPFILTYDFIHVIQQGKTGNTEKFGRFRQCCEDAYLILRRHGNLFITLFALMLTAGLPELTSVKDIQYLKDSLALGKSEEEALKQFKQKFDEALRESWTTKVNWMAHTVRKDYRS
Chain of p110β/p85 (P27986 whole entry partner, species assumed): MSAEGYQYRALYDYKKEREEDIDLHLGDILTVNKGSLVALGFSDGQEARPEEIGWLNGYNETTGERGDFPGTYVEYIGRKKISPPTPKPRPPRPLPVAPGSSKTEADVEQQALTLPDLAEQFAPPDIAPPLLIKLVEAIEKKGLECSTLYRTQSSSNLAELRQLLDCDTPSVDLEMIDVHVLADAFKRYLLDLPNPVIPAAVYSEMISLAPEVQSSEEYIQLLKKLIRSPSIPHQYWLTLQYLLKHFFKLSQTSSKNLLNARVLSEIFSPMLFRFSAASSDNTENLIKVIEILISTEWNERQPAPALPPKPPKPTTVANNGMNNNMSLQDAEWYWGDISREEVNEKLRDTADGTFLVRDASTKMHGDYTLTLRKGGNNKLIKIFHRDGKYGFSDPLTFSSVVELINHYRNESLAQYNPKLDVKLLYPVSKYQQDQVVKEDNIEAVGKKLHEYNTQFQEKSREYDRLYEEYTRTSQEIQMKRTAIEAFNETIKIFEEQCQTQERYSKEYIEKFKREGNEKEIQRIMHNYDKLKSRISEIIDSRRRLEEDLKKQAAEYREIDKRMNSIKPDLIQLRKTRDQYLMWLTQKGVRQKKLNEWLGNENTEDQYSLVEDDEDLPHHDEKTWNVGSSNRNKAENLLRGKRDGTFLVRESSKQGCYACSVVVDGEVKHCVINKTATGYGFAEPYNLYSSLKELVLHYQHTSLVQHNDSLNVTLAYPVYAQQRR
Chain of p110δ/p85 (O00329 whole entry, species assumed): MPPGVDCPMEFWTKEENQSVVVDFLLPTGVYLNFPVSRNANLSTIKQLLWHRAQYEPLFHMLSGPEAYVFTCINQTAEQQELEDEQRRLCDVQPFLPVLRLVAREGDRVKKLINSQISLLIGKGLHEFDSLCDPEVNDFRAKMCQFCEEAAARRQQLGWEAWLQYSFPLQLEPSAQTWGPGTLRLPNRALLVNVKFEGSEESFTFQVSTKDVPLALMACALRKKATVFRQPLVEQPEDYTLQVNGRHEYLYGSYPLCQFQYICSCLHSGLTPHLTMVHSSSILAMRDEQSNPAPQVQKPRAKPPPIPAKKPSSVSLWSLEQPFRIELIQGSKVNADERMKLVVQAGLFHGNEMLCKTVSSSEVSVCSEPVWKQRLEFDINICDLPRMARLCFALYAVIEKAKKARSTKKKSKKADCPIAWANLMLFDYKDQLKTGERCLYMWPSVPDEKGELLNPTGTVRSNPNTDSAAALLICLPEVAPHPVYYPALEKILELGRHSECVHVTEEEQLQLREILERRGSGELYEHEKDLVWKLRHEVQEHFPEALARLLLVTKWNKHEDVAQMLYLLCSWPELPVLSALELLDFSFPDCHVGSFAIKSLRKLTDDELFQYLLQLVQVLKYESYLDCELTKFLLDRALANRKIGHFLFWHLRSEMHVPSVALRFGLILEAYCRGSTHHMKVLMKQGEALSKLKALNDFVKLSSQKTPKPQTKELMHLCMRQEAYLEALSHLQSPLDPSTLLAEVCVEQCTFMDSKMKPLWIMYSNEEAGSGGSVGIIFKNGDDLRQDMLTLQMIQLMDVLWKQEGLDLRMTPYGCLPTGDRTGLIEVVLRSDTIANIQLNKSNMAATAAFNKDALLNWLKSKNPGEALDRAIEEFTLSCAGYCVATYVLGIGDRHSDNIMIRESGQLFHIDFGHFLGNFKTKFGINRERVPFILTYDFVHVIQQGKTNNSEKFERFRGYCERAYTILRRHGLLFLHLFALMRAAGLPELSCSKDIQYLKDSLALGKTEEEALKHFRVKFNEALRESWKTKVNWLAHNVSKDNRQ
Chain of p110δ/p85 (P27986 whole entry partner, species assumed): as the sequence (P27986 whole entry partner, species assumed) above
Chain of p110α/p85 (P42336 whole entry, species assumed): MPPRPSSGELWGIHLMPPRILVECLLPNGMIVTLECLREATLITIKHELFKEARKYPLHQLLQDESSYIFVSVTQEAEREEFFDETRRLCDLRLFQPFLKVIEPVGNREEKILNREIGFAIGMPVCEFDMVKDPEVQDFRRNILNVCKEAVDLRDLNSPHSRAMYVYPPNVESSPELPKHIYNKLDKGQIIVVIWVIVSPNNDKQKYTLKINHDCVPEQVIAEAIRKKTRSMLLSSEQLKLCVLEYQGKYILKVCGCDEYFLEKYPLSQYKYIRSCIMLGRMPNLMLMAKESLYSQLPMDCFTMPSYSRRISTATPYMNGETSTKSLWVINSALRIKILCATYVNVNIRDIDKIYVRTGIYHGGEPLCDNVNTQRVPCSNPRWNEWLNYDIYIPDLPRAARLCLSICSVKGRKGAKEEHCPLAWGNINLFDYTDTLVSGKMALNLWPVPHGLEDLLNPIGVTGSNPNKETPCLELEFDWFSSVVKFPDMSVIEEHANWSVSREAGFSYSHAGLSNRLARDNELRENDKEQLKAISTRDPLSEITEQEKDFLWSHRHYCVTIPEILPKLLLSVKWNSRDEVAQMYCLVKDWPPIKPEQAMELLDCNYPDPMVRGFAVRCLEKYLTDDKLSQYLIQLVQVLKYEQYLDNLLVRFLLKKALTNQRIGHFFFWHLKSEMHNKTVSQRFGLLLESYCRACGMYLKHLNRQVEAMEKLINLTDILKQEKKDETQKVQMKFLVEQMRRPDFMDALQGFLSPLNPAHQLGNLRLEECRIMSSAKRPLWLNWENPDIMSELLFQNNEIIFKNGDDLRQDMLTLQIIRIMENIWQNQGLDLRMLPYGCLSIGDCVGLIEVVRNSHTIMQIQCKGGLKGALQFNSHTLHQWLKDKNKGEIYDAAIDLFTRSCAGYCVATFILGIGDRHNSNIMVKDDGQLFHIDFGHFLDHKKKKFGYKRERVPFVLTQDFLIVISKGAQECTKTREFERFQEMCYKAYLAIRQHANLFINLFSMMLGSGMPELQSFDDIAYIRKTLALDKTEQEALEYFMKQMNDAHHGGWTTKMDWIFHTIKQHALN
Chain of p110α/p85 (P27986 whole entry partner, species assumed): as the sequence (P27986 whole entry partner, species assumed) above

| IC50 (p110β/p85) [nM] | IC50 (p110δ/p85) [nM] | IC50 (p110α/p85; [1]) [nM] | IC50 (p110α/p85) [nM] | SMILES | IC50 (NZB5) [µM] | IC50 (NZOV9) [µM] |
| --- | --- | --- | --- | --- | --- | --- |
| 5800 | 230 | 23 | – | CN(N=Cc1cnn2ccc(C#N)cc12)S(=O)(=O)c1cc([N+](=O)[O-])cnc1Cl [E80, 2-Chloro-N′-((5-cyanopyrazolo[1,5-a]pyridin-3-yl)methylene)-N-methyl-5-nitropyridine-3-sulfonohydrazide] | 7.9 | 3.4 |
| 72 | 19 | 21 | – | CN(N=Cc1cnn2ccc(C#N)cc12)C(=O)c1cccc([N+](=O)[O-])c1 [E82, N′-((5-Cyanopyrazolo[1,5-a]pyridin-3-yl)methylene)-N-methyl-3-nitro-benzohydrazide] | 1.8 | 6 |
| 48 | 39 | 41 | – | Cc1ccc([N+](=O)[O-])cc1CN(C)N=Cc1cnn2ccc(C#N)cc12 [E84, 3-((2-Methyl-2-(2-methyl-5-nitrobenzyl)hydrazono)methyl)pyrazolo[1,5-a]pyridine-5-carbonitrile] | 1.7 | 1.9 |
| > 1000 | 1450 | 250 | – | Cc1ccc([N+](=O)[O-])cc1S(=O)(=O)n1ccc(-c2cnn3ccc(Br)cc23)n1 [E88, 5-bromo-3-(1-(2-methyl-5-nitrophenylsulfonyl)-1H-pyrazol-3-yl)pyrazolo[1,5-a]pyridine] | 0.08 | 0.07 |
| 5500 | 250 | 790 | – | O=[N+]([O-])c1cccc(S(=O)(=O)c2nc(-c3cnn4ccc(Br)cc34)cs2)c1 [E90, 4-(5-Bromopyrazolo[1,5-a]pyridin-3-yl)-2-(3-nitrophenylsulfonyl)thiazole] | 0.18 | 0.61 |
| > 1000 | 120 | – | 84 | Cc1ccc([N+](=O)[O-])cc1Sc1nnc(-c2cnn3ccc(Br)cc23)o1 [E91, 2-(5-Bromopyrazolo[1,5-a]pyridin-3-yl)-5-(2-methyl-5-nitrophenylthio)-1,3,4-oxadiazole] | 0.73 | 2.8 |
